The target of assay [1] is Protein kinase C gamma type (Homo sapiens) (UniProt P05129). The assay is described as follows: Selectivity interaction (Upstate Kinase Profiler service (Millipore)) EUB0000056c PRKCG. As to conditions: at 1 µM.
The target of assay [2] is Protein kinase C delta type (Homo sapiens) (UniProt Q05655). As to conditions: at 10 µM.
Assay [3] concerns the target T1, Serine/threonine-protein kinase BRSK1 (Homo sapiens) (UniProt Q8TDC3).
T1 sequence (whole entry): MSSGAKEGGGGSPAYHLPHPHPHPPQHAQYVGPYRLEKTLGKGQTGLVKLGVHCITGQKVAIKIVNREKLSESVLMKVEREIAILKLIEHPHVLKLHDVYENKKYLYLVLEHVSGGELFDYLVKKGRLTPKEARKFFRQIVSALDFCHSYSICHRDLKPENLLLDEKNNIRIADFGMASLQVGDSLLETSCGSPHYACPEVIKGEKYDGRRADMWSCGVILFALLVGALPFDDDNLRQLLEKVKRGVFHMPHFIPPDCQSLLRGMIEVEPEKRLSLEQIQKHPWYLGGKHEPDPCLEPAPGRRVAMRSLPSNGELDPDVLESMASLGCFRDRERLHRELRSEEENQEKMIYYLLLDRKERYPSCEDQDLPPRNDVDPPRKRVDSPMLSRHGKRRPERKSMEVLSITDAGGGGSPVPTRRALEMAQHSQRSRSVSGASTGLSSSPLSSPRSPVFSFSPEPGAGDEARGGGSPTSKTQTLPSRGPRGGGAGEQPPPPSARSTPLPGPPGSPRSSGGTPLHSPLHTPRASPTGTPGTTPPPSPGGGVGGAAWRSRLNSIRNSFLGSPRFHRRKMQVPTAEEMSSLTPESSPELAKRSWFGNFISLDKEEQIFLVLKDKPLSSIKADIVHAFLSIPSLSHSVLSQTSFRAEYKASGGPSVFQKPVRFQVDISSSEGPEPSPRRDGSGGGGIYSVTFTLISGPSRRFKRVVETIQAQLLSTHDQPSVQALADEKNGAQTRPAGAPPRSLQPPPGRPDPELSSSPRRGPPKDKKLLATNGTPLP
Nature of the assay: Selectivity interaction (KinomeScan (DiscoverX)) EUB0000092b BRSK1. As to conditions: at 10 µM.

Assay [4] concerns the target T2, Mitogen-activated protein kinase kinase kinase 2 (Homo sapiens) (UniProt Q9Y2U5).
T2 sequence (whole entry): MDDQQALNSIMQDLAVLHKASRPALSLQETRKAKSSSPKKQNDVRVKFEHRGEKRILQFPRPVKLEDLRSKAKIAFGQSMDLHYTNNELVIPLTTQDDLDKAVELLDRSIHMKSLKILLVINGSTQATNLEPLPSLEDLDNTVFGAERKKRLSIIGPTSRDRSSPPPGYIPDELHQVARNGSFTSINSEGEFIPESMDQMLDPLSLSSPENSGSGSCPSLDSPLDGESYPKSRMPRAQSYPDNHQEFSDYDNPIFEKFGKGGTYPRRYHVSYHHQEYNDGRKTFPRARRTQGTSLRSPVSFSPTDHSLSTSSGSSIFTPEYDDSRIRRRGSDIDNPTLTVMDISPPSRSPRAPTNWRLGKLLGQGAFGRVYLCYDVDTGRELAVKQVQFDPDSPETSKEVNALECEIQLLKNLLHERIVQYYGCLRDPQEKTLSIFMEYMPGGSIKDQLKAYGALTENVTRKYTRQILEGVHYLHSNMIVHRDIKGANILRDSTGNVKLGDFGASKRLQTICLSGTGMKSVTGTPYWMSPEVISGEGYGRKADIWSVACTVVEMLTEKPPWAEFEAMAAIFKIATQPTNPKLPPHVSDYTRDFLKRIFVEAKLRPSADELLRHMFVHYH
Nature of the assay: Selectivity interaction (KinomeScan (DiscoverX)) EUB0000655a MAP3K2. As to conditions: at 10 µM.

Assay [5] deals with Cyclin-dependent kinase 17 (Homo sapiens) (UniProt Q00537). The assay is described as follows: Selectivity interaction (KinomeScan (DiscoverX)) EUB0000666a CDK17. As to conditions: at 10 µM.
Assay [6] concerns the target Tyrosine-protein kinase BTK (Homo sapiens, UniProt Q06187). The assay is described as follows: Selectivity interaction (SelectScreen profiling (Invitrogen)) EUB0000607a BTK. As to conditions: at 2 µM.
Assay [7] deals with Cyclin-dependent kinase-like 1 (Homo sapiens) (UniProt Q00532). Nature of the assay: Selectivity interaction (KinomeScan (DiscoverX)) EUB0000607a CDKL1. As to conditions: at 10 µM.
Sequence of Cyclin-dependent kinase-like 1 (Homo sapiens) (Q00532 whole entry): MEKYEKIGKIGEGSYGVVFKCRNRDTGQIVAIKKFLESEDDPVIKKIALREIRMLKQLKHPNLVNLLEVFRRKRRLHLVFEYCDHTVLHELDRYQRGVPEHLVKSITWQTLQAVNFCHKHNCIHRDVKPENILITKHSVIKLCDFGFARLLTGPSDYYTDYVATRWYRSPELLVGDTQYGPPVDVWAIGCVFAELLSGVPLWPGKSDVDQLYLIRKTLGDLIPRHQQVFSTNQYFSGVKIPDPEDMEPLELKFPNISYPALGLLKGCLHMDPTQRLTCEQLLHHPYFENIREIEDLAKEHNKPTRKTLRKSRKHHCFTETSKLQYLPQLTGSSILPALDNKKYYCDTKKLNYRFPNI
The target in assay [8] is T3, Mitogen-activated protein kinase kinase kinase 7 (Homo sapiens) (UniProt O43318).
T3 sequence (whole entry): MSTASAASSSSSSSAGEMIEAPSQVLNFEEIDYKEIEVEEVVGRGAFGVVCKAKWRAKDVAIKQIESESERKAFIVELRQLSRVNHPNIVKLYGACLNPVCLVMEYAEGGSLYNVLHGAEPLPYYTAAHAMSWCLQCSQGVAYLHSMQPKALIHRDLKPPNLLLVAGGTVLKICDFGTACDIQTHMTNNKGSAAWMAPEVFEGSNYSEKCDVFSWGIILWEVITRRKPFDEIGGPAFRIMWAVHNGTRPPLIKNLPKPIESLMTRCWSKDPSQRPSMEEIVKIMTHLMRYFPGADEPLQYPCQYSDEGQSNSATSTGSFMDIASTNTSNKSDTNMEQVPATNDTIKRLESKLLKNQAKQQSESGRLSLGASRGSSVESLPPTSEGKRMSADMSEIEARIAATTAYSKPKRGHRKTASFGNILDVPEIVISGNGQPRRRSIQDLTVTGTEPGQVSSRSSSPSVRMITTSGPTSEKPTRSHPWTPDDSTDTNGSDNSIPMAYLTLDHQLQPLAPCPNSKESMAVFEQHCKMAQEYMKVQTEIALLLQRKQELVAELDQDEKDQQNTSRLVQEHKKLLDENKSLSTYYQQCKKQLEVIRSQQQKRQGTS
The assay is described as follows: Selectivity interaction (ActivX KiNativ screen (kinase selectivity in THP-1 cell lysates)) EUB0000639a MAP3K7. As to conditions: lysate. The assay is classed as subcellular.

The target of assay [9] is Ribosomal protein S6 kinase alpha-4 (Homo sapiens) (UniProt O75676). The assay is described as follows: Selectivity interaction (ActivX KiNativ screen (kinase selectivity in THP-1 cell lysates)) EUB0000639a RPS6KA4. The assay is classed as subcellular. The conditions noted are these: lysate.
Sequence of Ribosomal protein S6 kinase alpha-4 (Homo sapiens) (O75676 whole entry, looked up): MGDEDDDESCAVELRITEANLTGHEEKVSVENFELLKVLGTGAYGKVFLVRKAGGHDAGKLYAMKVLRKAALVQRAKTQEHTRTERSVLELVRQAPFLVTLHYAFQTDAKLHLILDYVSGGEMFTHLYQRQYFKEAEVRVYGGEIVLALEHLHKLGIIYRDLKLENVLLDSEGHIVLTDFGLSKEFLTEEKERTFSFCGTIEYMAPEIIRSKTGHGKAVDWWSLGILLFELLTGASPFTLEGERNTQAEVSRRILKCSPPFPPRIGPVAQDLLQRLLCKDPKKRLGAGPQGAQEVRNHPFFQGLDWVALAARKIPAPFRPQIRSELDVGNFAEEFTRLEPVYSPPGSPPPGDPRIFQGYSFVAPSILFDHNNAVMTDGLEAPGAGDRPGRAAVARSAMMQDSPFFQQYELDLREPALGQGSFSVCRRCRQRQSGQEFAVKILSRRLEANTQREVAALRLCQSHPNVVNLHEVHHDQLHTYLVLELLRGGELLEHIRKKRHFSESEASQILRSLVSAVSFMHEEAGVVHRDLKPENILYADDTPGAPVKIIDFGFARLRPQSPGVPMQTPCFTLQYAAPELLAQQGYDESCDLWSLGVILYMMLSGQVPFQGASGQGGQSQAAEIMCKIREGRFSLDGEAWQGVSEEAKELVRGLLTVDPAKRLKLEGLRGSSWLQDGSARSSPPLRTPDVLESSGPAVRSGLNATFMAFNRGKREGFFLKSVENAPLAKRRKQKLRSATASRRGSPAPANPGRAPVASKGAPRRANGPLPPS
The target in assay [10] is Receptor-interacting serine/threonine-protein kinase 2 (Homo sapiens, UniProt O43353). The assay is described as follows: Selectivity interaction (Competition-binding assay (DiscoverX)) EUB0000229b RIPK2.
Sequence of Receptor-interacting serine/threonine-protein kinase 2 (O43353 whole entry): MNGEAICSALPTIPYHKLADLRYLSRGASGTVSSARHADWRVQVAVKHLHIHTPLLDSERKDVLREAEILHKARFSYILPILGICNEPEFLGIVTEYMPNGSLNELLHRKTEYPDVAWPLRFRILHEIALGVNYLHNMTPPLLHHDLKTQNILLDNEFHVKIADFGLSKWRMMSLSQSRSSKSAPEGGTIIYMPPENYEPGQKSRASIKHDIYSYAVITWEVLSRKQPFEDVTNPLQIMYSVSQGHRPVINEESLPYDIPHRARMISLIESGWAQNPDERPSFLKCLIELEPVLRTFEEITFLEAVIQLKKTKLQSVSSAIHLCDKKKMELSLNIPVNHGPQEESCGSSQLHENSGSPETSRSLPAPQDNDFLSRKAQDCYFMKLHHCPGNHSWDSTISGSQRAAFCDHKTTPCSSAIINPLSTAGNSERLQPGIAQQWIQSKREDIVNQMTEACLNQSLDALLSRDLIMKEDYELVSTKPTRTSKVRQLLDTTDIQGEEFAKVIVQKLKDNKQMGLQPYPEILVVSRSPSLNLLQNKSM
Assay [11] deals with Ribosomal protein S6 kinase alpha-5 (Homo sapiens) (UniProt O75582). Nature of the assay: Selectivity interaction (Kinase panel (DSF assay)) EUB0001559a RPS6KA5.
Sequence of Ribosomal protein S6 kinase alpha-5 (Homo sapiens) (O75582 whole entry, looked up): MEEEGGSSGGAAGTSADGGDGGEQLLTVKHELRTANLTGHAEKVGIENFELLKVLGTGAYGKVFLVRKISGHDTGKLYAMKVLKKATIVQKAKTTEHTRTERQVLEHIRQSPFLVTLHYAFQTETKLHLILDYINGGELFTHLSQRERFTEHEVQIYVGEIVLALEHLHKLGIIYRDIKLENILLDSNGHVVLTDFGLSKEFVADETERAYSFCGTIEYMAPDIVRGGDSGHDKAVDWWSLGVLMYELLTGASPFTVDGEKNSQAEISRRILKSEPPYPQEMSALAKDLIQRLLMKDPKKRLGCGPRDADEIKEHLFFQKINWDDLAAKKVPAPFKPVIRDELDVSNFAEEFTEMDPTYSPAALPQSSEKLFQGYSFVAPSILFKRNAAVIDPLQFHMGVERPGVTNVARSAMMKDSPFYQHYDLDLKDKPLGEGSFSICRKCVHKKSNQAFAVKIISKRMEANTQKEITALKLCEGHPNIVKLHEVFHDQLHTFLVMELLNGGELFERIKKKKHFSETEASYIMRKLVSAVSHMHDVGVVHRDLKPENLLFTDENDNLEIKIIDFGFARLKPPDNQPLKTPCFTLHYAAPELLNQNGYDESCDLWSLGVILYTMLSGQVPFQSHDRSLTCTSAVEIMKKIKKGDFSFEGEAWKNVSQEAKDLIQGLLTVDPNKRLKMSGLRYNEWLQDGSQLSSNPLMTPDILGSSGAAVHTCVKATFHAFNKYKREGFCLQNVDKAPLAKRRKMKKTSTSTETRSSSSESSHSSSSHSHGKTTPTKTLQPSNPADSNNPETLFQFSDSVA
The target in assay [12] is AP2-associated protein kinase 1 (Homo sapiens, UniProt Q2M2I8). Nature of the assay: Selectivity interaction (KinomeScan (DiscoverX)) EUB0000595a AAK1. The conditions noted are these: at 10 µM.
Sequence of AP2-associated protein kinase 1 (Q2M2I8 whole entry, looked up): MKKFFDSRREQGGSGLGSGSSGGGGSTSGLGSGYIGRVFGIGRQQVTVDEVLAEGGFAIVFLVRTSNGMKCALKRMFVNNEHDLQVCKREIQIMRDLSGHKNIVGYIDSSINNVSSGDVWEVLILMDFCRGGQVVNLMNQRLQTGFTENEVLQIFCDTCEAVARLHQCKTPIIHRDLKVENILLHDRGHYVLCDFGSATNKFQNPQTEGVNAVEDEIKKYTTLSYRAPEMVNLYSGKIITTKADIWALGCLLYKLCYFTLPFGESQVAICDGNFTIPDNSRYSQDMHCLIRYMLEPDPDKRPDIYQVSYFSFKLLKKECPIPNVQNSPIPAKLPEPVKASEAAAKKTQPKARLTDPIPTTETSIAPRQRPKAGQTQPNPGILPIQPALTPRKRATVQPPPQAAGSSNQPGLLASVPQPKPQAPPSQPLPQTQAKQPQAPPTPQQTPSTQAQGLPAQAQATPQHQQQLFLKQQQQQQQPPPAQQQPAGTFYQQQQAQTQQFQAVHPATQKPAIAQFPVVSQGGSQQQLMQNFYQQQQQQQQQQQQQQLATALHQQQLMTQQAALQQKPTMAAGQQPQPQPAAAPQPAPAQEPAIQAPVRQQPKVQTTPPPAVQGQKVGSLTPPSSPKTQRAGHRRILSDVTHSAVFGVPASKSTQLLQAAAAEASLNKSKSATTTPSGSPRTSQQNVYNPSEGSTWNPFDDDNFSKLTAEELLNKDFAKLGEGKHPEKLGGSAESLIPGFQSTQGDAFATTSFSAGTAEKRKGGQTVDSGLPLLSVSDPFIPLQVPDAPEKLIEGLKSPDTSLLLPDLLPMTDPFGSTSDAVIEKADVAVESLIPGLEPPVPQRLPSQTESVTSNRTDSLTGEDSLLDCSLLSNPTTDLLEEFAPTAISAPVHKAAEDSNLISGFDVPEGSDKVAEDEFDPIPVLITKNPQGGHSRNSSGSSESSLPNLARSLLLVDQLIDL

Sequence of Protein kinase C delta type (Homo sapiens) (Q05655 whole entry, looked up): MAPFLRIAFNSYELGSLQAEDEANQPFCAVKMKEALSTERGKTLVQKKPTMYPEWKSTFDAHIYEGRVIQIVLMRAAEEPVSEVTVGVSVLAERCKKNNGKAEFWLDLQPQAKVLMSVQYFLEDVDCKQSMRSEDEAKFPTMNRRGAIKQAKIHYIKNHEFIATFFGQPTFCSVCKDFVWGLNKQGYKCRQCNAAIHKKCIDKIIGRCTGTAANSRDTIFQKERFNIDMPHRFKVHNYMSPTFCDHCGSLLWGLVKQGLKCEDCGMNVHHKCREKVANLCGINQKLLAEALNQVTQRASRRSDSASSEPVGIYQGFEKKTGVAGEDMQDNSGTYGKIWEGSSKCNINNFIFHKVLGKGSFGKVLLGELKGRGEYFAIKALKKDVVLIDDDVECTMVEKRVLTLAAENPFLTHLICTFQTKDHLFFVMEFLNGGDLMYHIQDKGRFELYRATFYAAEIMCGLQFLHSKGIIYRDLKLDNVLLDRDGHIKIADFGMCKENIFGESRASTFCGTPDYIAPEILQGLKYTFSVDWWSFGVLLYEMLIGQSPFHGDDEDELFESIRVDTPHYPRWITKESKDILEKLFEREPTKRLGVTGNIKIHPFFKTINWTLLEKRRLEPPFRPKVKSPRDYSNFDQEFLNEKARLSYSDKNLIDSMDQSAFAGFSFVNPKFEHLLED

Regarding `Cc1ccc(-c2ccc3c(ccc4sc5c(c43)NC[C@@H](C)NC5=O)n2)cn1`, in [1], the % of inhibition is 17%.
Consider `CCN(CC)CCCCNc1ncc2cc(-c3cc(OC)cc(OC)c3)c(NC(=O)NC(C)(C)C)nc2n1`, for which the % of control in assay [2] stood at 100%.
In [3], `CCC(=O)N1CCN(c2ccc(-n3c(=O)ccc4cnc5ccc(-c6cnc7ccccc7c6)cc5c43)cc2C(F)(F)F)CC1` came in with a % of control of 78%.
In [4], `CN(C)CCOc1ccc(-c2nc(-c3ccncc3)c(-c3ccc4c(c3)CC/C4=N\O)[nH]2)cc1` came in with a % of control of 69%.
For `O=C(NOC[C@H](O)CO)c1ccc(F)c(F)c1Nc1ccc(I)cc1F`, the % of control in assay [5] amounted to 95%.
Turning to `CNC(=O)Nc1ccc(-c2nc(N3CC4CCC(C3)O4)c3cnn(C4CCC5(CC4)OCCO5)c3n2)cc1`, in assay [6], the % of inhibition stood at 3%. Moreover, the % of control in assay [7] turned out to be 84%.
Regarding `CC[C@@H]1[C@H](F)C(=O)N[C@@H]1COc1nccc2cc(C(N)=O)c(OC)cc12` [ZIMLOVISERTIB], the % of inhibition in [8] (at 0.01 µM) is 6.8%; in [8] (at 0.04 µM), 3.8%; in assay [8] (at 0.2 µM) it was -2.9%; in assay [8] (at 1 µM), -3.1%; in assay [8] (at 5 µM), -8.6%; in assay [9] (at 0.01 µM), -4.6%. In addition, the % of inhibition is -2.6% in [9] (at 0.04 µM), -18.1% in [9] (at 0.2 µM), -20.7% in assay [9] (at 1 µM) and -27.3% in assay [9] (at 5 µM).
The compound `COc1cc(N(C)c2ccnc3ccc(C(F)(F)F)cc23)cc(OC)c1OC` came in with an equilibrium dissociation constant (Kd) in [10] of 4.9 µM.
For `CN(C(=O)c1cnn2cccnc12)c1cc2c(cc1N1CCOCC1)C(=O)N(C[C@@H](F)C(C)(C)O)C2`, the dTM in assay [11] was 0.3 K.
`COCC(=O)NC/C=C/c1ccc2ncnc(Nc3ccc(Oc4ccc(C)nc4)c(C)c3)c2c1` [CP-724714]: the % of control in [12] was 100%.
